Reference: patent publication US6355799B1, “Substituted benzene compounds, process for their preparation, and herbicidal and defoliant compositions containing them” (ISK Americas Incorporated, priority 1997, dated 2002)

Experiments:
Format in all cases: in vivo
[1] = system: redroot pigweed (Amaranthus retroflexus, AMARE); experiment: Pre-emerge test, greenhouse herbicide activity screening; conditions: rated 14 days after application, 0 = no damage, 100 = complete death
In short: (§1)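 Rating: 0–100 visual injury, 14 DAA. Application: acetone, 187 l/ha, 15–1000 g ai/ha, flat-fan track sprayer with nozzle 40–45 cm above soil or canopy. Post-emerge runs used 0.25% v/v surfactant on 2–3 leaf plants.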

[2] = system: barnyardgrass (Echinochloa crus-galli, ECHCG); experiment: as above; conditions: rated 14 days after application, 0 = no damage, 100 = complete death
In short: (§2)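 Compounds in acetone were track-sprayed at 187 l/ha, 15–1000 g ai/ha, onto sandy loam pots. Pre-emerge seeds were sown one day before spraying, with surface watering afterwards. Post-emerge plants were at the 2–3 leaf stage and sprayed with 0.25% v/v non-ionic surfactant. Injury was rated 0–100 at 14 days.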

[3] = system: common ragweed (Ambrosia artemisizfolia L., AMBEL); experiment: as above; conditions: rated 14 days after application, 0 = no damage, 100 = complete death
In short: as §2

[4] = system: green foxtail (Setaria viridis, SETVI); experiment: as above; conditions: rated 14 days after application, 0 = no damage, 100 = complete death
In short: as §2

[5] = system: ivyleaf morningglory (Ipomoea hederacea, IPOHE); experiment: as above; conditions: rated 14 days after application, 0 = no damage, 100 = complete death
In short: as §2

[6] = system: johnsongrass (Sorghum halepense, SORHA); experiment: as above; conditions: rated 14 days after application, 0 = no damage, 100 = complete death
In short: as §2

[7] = system: lambsquarters (Chenopodium album, CHEAL); experiment: as above; conditions: rated 14 days after application, 0 = no damage, 100 = complete death
In short: as §2

[8] = system: large crabgrass (Digitaria sanguinalis, DIGSA); experiment: as above; conditions: rated 14 days after application, 0 = no damage, 100 = complete death
In short: as §2

[9] = system: sicklepod (Cassia obtusifolia, CASOB); experiment: as above; conditions: rated 14 days after application, 0 = no damage, 100 = complete death
In short: as §2

[10] = system: velvetleaf (Abutilon theophrasti, ABUTH); experiment: as above; conditions: rated 14 days after application, 0 = no damage, 100 = complete death
In short: as §2

[11] = system: field corn (Zea mays L., var. Dekalb 535, CORN); experiment: Pre-emerge test, crop safety; conditions: rated 14 days after application, 0 = no damage, 100 = complete death
In short: as §1

[12] = system: upland rice (Oryza sp., var. Tebonnet, RICE); experiment: Pre-emerge test, crop safety; conditions: rated 14 days after application, 0 = no damage, 100 = complete death
In short: as §1

[13] = system: barnyardgrass (Echinochloa crus-galli, ECHCG); experiment: Post-emerge test, greenhouse herbicide activity screening; conditions: post-emerge, 14 days after application, rating scale 0-100
In short: (§3)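 Fourteen days after spraying, crop and weed injury was graded visually from 0, no effect, to 100, every plant dead. Test substances were dissolved in acetone and applied at 15–1000 g ai/ha with a flat-fan nozzle. Application was either pre-emergence, one day after sowing, or post-emergence at the 2–3 leaf stage.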

[14] = system: common ragweed (Ambrosia artemisizfolia L., AMBEL); experiment: as above; conditions: post-emerge, 14 days after application, rating scale 0-100
In short: as §3

[15] = system: green foxtail (Setaria viridis, SETVI); experiment: as above; conditions: post-emerge, 14 days after application, rating scale 0-100
In short: as §3

[16] = system: ivyleaf morningglory (Ipomoea hederacea, IPOHE); experiment: as above; conditions: post-emerge, 14 days after application, rating scale 0-100
In short: as §3

[17] = system: johnsongrass (Sorghum halepense, SORHA); experiment: as above; conditions: post-emerge, 14 days after application, rating scale 0-100
In short: as §3

[18] = system: lambsquarters (Chenopodium album, CHEAL); experiment: as above; conditions: post-emerge, 14 days after application, rating scale 0-100
In short: as §3

[19] = system: large crabgrass (Digitaria sanguinalis, DIGSA); experiment: as above; conditions: post-emerge, 14 days after application, rating scale 0-100
In short: as §3

[20] = system: redroot pigweed (Amaranthus retroflexus, AMARE); experiment: as above; conditions: post-emerge, 14 days after application, rating scale 0-100
In short: as §3

[21] = system: sicklepod (Cassia obtusifolia, CASOB); experiment: as above; conditions: post-emerge, 14 days after application, rating scale 0-100
In short: as §3

[22] = system: velvetleaf (Abutilon theophrasti, ABUTH); experiment: as above; conditions: post-emerge, 14 days after application, rating scale 0-100
In short: as §3

[23] = system: field corn (Zea mays L., var. Dekalb 535, CORN); experiment: Post-emerge test, crop safety; conditions: post-emerge, 14 days after application, rating scale 0-100
In short: as §2

[24] = system: upland rice (Oryza sp., var. Tebonnet, RICE); experiment: Post-emerge test, crop safety; conditions: post-emerge, 14 days after application, rating scale 0-100
In short: as §2

SMILES: COc1c(Cl)cc(F)c(-n2c(=O)cc(C(F)(F)F)n(C)c2=O)c1NC(=O)c1ccc(Cl)cc1Cl [2-58]
- Pre-emerge Herbicidal Activity, phytotoxicity rating (0-100), AMARE ([1]; 63 g ai/ha): 100
- Pre-emerge Herbicidal Activity, phytotoxicity rating (0-100), AMARE ([1]; 250 g ai/ha): 100
- Pre-emerge Herbicidal Activity, phytotoxicity rating (0-100), ECHCG ([2]; 63 g ai/ha): 50
- Pre-emerge Herbicidal Activity, phytotoxicity rating (0-100), ECHCG ([2]; 250 g ai/ha): 100
- Pre-emerge Herbicidal Activity, phytotoxicity rating (0-100), AMBEL ([3]; 63 g ai/ha): 50
- Pre-emerge Herbicidal Activity, phytotoxicity rating (0-100), AMBEL ([3]; 250 g ai/ha): 100
- Pre-emerge Herbicidal Activity, phytotoxicity rating (0-100), SETVI ([4]; 63 g ai/ha): 100
- Pre-emerge Herbicidal Activity, phytotoxicity rating (0-100), SETVI ([4]; 250 g ai/ha): 100
- Pre-emerge Herbicidal Activity, phytotoxicity rating (0-100), IPOHE ([5]; 63 g ai/ha): 20
- Pre-emerge Herbicidal Activity, phytotoxicity rating (0-100), IPOHE ([5]; 250 g ai/ha): 100
- Pre-emerge Herbicidal Activity, phytotoxicity rating (0-100), SORHA ([6]; 63 g ai/ha): 70
- Pre-emerge Herbicidal Activity, phytotoxicity rating (0-100), SORHA ([6]; 250 g ai/ha): 100
- Pre-emerge Herbicidal Activity, phytotoxicity rating (0-100), CHEAL ([7]; 63 g ai/ha): 100
- Pre-emerge Herbicidal Activity, phytotoxicity rating (0-100), CHEAL ([7]; 250 g ai/ha): 100
- Pre-emerge Herbicidal Activity, phytotoxicity rating (0-100), DIGSA ([8]; 63 g ai/ha): 90
- Pre-emerge Herbicidal Activity, phytotoxicity rating (0-100), DIGSA ([8]; 250 g ai/ha): 100
- Pre-emerge Herbicidal Activity, phytotoxicity rating (0-100), CASOB ([9]; 63 g ai/ha): 30
- Pre-emerge Herbicidal Activity, phytotoxicity rating (0-100), CASOB ([9]; 250 g ai/ha): 99
- Pre-emerge Herbicidal Activity, phytotoxicity rating (0-100), ABUTH ([10]; 63 g ai/ha): 100
- Pre-emerge Herbicidal Activity, phytotoxicity rating (0-100), ABUTH ([10]; 250 g ai/ha): 100
- Pre-emerge phytotoxicity rating (0-100), crop damage, CORN ([11]; 63 g ai/ha): 40
- Pre-emerge phytotoxicity rating (0-100), crop damage, CORN ([11]; 250 g ai/ha): 95
- Pre-emerge phytotoxicity rating (0-100), crop damage, RICE ([12]; 63 g ai/ha): 80
- Pre-emerge phytotoxicity rating (0-100), crop damage, RICE ([12]; 250 g ai/ha): 95
- phytotoxicity rating ECHCG ([13]; 63 g ai/ha): 20
- phytotoxicity rating ECHCG ([13]; 250 g ai/ha): 90
- phytotoxicity rating AMBEL ([14]; 63 g ai/ha): 100
- phytotoxicity rating AMBEL ([14]; 250 g ai/ha): 100
- phytotoxicity rating SETVI ([15]; 63 g ai/ha): 50
- phytotoxicity rating SETVI ([15]; 250 g ai/ha): 60
- phytotoxicity rating IPOHE ([16]; 63 g ai/ha): 95
- phytotoxicity rating IPOHE ([16]; 250 g ai/ha): 100
- phytotoxicity rating SORHA ([17]; 63 g ai/ha): 20
- phytotoxicity rating SORHA ([17]; 250 g ai/ha): 90
- phytotoxicity rating CHEAL ([18]; 63 g ai/ha): 100
- phytotoxicity rating CHEAL ([18]; 250 g ai/ha): 100
- phytotoxicity rating DIGSA ([19]; 63 g ai/ha): 10
- phytotoxicity rating DIGSA ([19]; 250 g ai/ha): 40
- phytotoxicity rating AMARE ([20]; 63 g ai/ha): 100
- phytotoxicity rating AMARE ([20]; 250 g ai/ha): 100
- phytotoxicity rating CASOB ([21]; 63 g ai/ha): 100
- phytotoxicity rating CASOB ([21]; 250 g ai/ha): 100
- phytotoxicity rating ABUTH ([22]; 63 g ai/ha): 100
- phytotoxicity rating ABUTH ([22]; 250 g ai/ha): 100
- phytotoxicity rating CORN ([23]; 63 g ai/ha): 40
- phytotoxicity rating CORN ([23]; 250 g ai/ha): 90
- phytotoxicity rating RICE ([24]; 63 g ai/ha): 50
- phytotoxicity rating RICE ([24]; 250 g ai/ha): 85
